According to patent publication US10710978B2, “STK4 inhibitors for treatment of hematologic malignancies” (Dana-Farber Cancer Institute, Inc., priority 2015, dated 2020):
Like-named read-outs stand apart in the source and are kept apart here.

What was measured:
Assay in all cases: KiNativ assay
Format in all cases: binding
GCN2 domain2 = GCN2 domain2 (Homo sapiens (Human), UniProt Q9P2K8); details: H929 live cell
Description: (§1) Biochemical IC50s of the compounds of the present disclosure against various kinases were measured in a KiNativ assay. Compounds were screened in duplicate at 10 μM in H929 live cell. IC50 was measured via Mass spectroscopy (MS).

CaMK2d = CaMK2d (Homo sapiens (Human), UniProt Q13557); details: H929 live cell
Sequence of CaMK2d (Q13557 whole entry): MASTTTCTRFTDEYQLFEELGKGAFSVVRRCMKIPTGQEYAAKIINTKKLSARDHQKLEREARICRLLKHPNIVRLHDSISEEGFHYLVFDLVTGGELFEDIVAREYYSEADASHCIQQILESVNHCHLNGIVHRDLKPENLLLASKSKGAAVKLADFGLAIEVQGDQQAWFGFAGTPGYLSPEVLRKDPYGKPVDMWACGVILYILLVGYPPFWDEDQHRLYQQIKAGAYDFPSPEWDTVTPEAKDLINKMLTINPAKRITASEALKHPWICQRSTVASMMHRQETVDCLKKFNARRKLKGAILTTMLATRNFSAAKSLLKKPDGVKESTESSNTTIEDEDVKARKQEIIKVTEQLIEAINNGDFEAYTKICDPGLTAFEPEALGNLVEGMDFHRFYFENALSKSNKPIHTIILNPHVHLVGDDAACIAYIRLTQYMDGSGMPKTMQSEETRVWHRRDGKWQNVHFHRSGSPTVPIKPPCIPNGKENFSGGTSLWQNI
Description: as §1

AurB = AurB (Homo sapiens (Human), UniProt Q96GD4); details: H929 live cell
Description: as §1

Erk2 = Erk2 (Homo sapiens (Human), UniProt P28482); details: H929 live cell
Sequence of Erk2 (P28482 whole entry): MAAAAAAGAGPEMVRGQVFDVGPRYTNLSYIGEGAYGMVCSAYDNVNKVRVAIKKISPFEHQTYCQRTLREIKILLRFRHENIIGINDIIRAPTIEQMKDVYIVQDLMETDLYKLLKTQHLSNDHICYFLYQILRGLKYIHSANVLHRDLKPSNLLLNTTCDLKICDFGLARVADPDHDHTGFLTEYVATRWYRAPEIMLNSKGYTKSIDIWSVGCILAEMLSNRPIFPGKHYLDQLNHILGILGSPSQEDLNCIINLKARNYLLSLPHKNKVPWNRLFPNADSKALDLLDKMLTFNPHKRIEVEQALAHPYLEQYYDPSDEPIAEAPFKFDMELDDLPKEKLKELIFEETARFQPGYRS
Description: as §1

[1] = tested on: ZC1/HGK, ZC2/TNIK, ZC3/MINK; details: H929 live cell
Description: as §1

TAO1, TAO3 = details: H929 live cell
Description: as §1

MAP2K1, MAP2K2 = details: 10 μM, H929 live cell
Description: as §1

CaMK2g = CaMK2g (Homo sapiens (Human), UniProt Q13555); details: H929 live cell
Description: as §1

NEK8 = NEK8 (Homo sapiens (Human), UniProt Q86SG6); details: H929 live cell
Sequence of NEK8 (Q86SG6 whole entry): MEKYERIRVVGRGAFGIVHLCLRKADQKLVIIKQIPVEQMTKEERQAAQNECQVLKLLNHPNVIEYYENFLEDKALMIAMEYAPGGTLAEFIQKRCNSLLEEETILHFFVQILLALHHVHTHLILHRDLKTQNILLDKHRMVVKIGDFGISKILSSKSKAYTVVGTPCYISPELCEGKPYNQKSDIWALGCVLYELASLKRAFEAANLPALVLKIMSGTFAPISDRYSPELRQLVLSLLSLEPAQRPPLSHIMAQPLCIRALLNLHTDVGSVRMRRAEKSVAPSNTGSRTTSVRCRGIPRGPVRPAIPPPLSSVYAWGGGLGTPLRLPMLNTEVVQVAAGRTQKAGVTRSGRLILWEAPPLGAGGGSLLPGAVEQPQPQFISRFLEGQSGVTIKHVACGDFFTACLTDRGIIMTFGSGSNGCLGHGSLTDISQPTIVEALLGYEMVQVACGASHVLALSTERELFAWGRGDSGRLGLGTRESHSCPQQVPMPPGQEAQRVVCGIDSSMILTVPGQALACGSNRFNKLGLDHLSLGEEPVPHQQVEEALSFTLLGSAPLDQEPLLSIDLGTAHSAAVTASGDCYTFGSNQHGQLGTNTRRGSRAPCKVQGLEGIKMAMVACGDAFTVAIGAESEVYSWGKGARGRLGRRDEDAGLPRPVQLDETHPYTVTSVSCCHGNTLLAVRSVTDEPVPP
Description: as §1

RSK1 domain1 = RSK1 domain1 (Homo sapiens (Human), UniProt Q15418); details: H929 live cell
Description: as §1

ZAK = ZAK (Homo sapiens (Human), UniProt Q9NYL2); details: H929 live cell
Description: as §1

LKB1 = LKB1 (Homo sapiens (Human), UniProt Q15831); details: H929 live cell
Description: as §1

FER = FER (Homo sapiens (Human), UniProt P16591); details: H929 live cell
Description: as §1

MLKL = MLKL (Homo sapiens (Human), UniProt Q8NB16); details: H929 live cell
Sequence of MLKL (Q8NB16 whole entry): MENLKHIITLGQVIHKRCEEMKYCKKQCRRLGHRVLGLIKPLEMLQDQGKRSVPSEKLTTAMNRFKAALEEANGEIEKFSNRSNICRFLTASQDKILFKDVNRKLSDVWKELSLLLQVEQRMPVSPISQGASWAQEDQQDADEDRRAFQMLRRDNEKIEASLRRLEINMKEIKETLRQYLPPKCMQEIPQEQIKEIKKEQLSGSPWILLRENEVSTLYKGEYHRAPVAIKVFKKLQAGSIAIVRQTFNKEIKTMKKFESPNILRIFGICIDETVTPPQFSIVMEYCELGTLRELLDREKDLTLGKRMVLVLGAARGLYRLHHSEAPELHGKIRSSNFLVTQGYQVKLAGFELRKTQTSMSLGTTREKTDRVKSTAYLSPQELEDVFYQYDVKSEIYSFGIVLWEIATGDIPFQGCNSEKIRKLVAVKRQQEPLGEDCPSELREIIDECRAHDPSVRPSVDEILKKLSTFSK
Description: as §1

PRPK = PRPK (Homo sapiens (Human), UniProt Q96S44); details: H929 live cell
Sequence of PRPK (Q96S44 whole entry): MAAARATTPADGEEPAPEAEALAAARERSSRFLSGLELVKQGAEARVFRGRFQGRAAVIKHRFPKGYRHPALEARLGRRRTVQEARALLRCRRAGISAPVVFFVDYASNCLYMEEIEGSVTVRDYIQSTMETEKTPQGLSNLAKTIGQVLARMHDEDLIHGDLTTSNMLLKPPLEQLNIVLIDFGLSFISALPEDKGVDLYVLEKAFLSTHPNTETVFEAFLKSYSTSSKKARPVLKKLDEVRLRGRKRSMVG
Description: as §1

PEK = PEK (Homo sapiens (Human), UniProt Q9NZJ5); details: H929 live cell
Description: as §1

NEK6, NEK7 = details: H929 live cell
Description: as §1

PKD3 = PKD3 (Homo sapiens (Human), UniProt O94806); details: H929 live cell
Description: as §1

GSK3B = GSK3B (Homo sapiens (Human), UniProt P49841); details: H929 live cell
Sequence of GSK3B (P49841 whole entry): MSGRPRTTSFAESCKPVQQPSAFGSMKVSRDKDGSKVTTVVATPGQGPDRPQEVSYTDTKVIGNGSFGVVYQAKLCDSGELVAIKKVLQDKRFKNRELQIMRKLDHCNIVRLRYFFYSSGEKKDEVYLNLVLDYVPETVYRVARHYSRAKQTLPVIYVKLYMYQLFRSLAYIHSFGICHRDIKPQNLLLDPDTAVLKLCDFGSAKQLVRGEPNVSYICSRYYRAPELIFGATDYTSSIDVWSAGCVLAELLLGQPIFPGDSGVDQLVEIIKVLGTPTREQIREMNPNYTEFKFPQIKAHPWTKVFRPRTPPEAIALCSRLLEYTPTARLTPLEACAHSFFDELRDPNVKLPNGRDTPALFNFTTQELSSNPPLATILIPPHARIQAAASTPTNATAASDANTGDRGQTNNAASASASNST
Description: as §1

GSK3A = GSK3A (Homo sapiens (Human), UniProt P49840); details: H929 live cell
Description: as §1

MAP3K2 = MAP3K2 (Homo sapiens (Human), UniProt Q9Y2U5); details: H929 live cell
Sequence of MAP3K2 (Q9Y2U5 whole entry): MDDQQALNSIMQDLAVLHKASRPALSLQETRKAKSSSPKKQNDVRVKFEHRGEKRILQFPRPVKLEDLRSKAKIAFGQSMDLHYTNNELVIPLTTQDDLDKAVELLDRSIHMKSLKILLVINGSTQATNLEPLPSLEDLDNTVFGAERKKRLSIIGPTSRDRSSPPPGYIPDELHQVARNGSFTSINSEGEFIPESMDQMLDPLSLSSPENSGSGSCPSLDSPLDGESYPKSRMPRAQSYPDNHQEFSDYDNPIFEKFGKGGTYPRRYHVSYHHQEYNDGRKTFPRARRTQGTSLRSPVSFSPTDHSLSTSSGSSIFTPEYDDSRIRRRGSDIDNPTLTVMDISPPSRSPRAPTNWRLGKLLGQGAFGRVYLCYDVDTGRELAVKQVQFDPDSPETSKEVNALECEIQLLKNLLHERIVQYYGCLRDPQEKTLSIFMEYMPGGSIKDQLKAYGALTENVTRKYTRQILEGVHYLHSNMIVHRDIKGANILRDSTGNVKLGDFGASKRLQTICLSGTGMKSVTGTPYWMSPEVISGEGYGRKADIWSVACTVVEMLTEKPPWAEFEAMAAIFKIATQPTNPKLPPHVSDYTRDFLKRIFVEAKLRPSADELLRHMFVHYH
Description: as §1

LYN = LYN (Homo sapiens (Human), UniProt P07948); details: H929 live cell
Sequence of LYN (P07948 whole entry): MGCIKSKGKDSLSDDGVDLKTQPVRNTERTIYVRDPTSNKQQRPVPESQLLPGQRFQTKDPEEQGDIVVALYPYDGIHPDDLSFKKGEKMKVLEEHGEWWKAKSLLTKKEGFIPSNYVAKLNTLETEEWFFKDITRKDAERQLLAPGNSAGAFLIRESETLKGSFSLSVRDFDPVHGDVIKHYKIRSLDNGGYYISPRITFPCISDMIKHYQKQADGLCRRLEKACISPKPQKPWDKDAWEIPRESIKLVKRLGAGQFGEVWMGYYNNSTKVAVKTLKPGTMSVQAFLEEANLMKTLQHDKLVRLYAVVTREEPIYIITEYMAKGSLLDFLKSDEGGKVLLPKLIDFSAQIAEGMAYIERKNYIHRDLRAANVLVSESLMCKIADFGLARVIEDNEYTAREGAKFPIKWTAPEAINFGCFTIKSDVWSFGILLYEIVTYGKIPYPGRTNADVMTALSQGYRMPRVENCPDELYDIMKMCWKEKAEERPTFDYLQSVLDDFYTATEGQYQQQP
Description: as §1

PIP4K2A = PIP4K2A (Homo sapiens (Human), UniProt P48426); details: H929 live cell
Description: as §1

NuaK2 = NuaK2 (Homo sapiens (Human), UniProt Q9H093); details: H929 live cell
Description: as §1

ILK = ILK (Homo sapiens (Human), UniProt Q13418); details: H929 live cell
Description: as §1

PKCz = PKCz (Homo sapiens (Human), UniProt Q05513); details: H929 live cell
Description: as §1

JNK1, JNK2, JNK3 = details: H929 live cell
Description: as §1

IKKb = IKKb (Homo sapiens (Human), UniProt O14920); details: H929 live cell
Description: as §1

MAP3K2, MAP3K3 = details: H929 live cell
Description: as §1

IRE1 = IRE1 (Homo sapiens (Human), UniProt O75460); details: H929 live cell
Description: as §1

CaMKK2 = CaMKK2 (Homo sapiens (Human), UniProt Q96RR4); details: H929 live cell
Description: as §1

SNRK = SNRK (Homo sapiens (Human), UniProt Q9NRH2); details: H929 live cell
Description: as §1

STLK5 = STLK5 (Homo sapiens (Human), UniProt Q7RTN6); details: H929 live cell
Description: as §1

LATS1 = LATS1 (Homo sapiens (Human), UniProt O95835); details: H929 live cell
Sequence of LATS1 (O95835 whole entry): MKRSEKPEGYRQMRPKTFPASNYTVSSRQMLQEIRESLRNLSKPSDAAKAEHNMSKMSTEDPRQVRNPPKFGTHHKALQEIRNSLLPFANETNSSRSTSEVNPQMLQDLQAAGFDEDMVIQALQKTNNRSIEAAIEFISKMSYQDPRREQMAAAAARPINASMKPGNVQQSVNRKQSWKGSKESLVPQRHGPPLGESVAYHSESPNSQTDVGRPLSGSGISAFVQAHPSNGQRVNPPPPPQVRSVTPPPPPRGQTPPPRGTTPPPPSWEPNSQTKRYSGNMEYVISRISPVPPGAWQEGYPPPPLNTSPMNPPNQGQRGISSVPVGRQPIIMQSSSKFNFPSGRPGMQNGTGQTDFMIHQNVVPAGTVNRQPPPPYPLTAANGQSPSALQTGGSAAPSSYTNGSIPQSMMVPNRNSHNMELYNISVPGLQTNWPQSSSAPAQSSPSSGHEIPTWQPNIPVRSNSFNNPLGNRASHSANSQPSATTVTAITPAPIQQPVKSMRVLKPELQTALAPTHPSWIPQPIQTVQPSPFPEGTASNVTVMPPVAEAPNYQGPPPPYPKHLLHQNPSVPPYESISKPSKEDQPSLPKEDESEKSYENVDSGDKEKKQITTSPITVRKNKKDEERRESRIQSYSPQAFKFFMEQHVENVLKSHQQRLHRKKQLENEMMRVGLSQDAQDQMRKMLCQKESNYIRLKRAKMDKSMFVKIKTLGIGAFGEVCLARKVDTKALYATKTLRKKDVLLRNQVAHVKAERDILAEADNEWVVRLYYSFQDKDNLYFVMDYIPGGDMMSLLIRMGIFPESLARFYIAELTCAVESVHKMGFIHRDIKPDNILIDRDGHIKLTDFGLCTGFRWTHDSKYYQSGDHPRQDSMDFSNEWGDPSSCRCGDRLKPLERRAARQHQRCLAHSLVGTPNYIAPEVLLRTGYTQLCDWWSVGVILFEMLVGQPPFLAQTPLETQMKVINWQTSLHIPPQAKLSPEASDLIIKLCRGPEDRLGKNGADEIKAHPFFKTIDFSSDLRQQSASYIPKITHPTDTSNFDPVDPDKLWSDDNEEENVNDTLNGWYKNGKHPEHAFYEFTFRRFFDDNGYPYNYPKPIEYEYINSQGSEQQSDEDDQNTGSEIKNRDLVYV
Description: as §1

Nc1ncc(-c2cccc([N+](=O)[O-])c2F)cc1-c1ccc2c(c1)CCNC2=O [Compound I-9, 6-(2-amino-5-(2-fluoro-3-nitrophenyl)pyridin-3-yl)-3,4-dihydroisoquinolin-1(2H)-one]
inhibition at 10 µM (GCN2 domain2; read-out: % inhibition (range)): 0% | inhibition at 10 µM (GCN2 domain2; read-out: inhibition (10 μM)): 15.5% | inhibition at 10 µM (CaMK2d; read-out: % inhibition (range)): 0% | inhibition at 10 µM (CaMK2d; read-out: inhibition (10 μM)): -5.7% | inhibition at 10 µM (AurB; read-out: % inhibition (range)): 50 to 75% | inhibition at 10 µM (AurB; read-out: inhibition (10 μM)): 53.4% | inhibition at 10 µM (Erk2; read-out: % inhibition (range)): 50 to 75% | inhibition at 10 µM (Erk2; read-out: inhibition (10 μM)): 60.2% | % inhibition (range) ([1]; 10 μM): >90% | inhibition (10 μM) [1]: 96.7% | % inhibition (range) (TAO1, TAO3; 10 μM): 50-75% | inhibition (10 μM) (TAO1, TAO3): 67.5% | % inhibition (range) (MAP2K1, MAP2K2): 0.0% | inhibition at 10 µM (CaMK2g; read-out: % inhibition (range)): 0% | inhibition at 10 µM (CaMK2g; read-out: inhibition (10 μM)): -23% | inhibition at 10 µM (NEK8; read-out: % inhibition (range)): 0% | inhibition at 10 µM (NEK8; read-out: inhibition (10 μM)): 11.6% | inhibition at 10 µM (RSK1 domain1; read-out: % inhibition (range)): 0% | inhibition at 10 µM (RSK1 domain1; read-out: inhibition (10 μM)): 24% | inhibition at 10 µM (ZAK; read-out: % inhibition (range)): 35 to 50% | inhibition at 10 µM (ZAK; read-out: inhibition (10 μM)): 42% | inhibition at 10 µM (LKB1; read-out: % inhibition (range)): 0% | inhibition at 10 µM (LKB1; read-out: inhibition (10 μM)): 4.5% | inhibition at 10 µM (FER; read-out: % inhibition (range)): 0% | inhibition at 10 µM (FER; read-out: inhibition (10 μM)): 27.4% | inhibition at 10 µM (MLKL; read-out: % inhibition (range)): 50 to 75% | inhibition at 10 µM (MLKL; read-out: inhibition (10 μM)): 66.9% | inhibition at 10 µM (PRPK; read-out: % inhibition (range)): 0% | inhibition at 10 µM (PRPK; read-out: inhibition (10 μM)): -5% | inhibition at 10 µM (PEK; read-out: % inhibition (range)): > 100% | inhibition at 10 µM (PEK; read-out: inhibition (10 μM)): -100% | % inhibition (range) (NEK6, NEK7; 10 μM): 0.0% | inhibition (10 μM) (NEK6, NEK7): −35.7% | inhibition at 10 µM (PKD3; read-out: % inhibition (range)): 50 to 75% | inhibition at 10 µM (PKD3; read-out: inhibition (10 μM)): 74.2% | inhibition at 10 µM (GSK3B; read-out: % inhibition (range)): > 90% | inhibition at 10 µM (GSK3B; read-out: inhibition (10 μM)): 97.2% | inhibition at 10 µM (GSK3A; read-out: % inhibition (range)): > 90% | inhibition at 10 µM (GSK3A; read-out: inhibition (10 μM)): 97.2% | inhibition at 10 µM (MAP3K2; read-out: % inhibition (range)): 0% | inhibition at 10 µM (MAP3K2; read-out: inhibition (10 μM)): 0.3% | inhibition at 10 µM (LYN; read-out: % inhibition (range)): 0% | inhibition at 10 µM (LYN; read-out: inhibition (10 μM)): -12.4% | inhibition at 10 µM (PIP4K2A; read-out: % inhibition (range)): 0% | inhibition at 10 µM (PIP4K2A; read-out: inhibition (10 μM)): 10.2% | inhibition at 10 µM (NuaK2; read-out: % inhibition (range)): 50 to 75% | inhibition at 10 µM (NuaK2; read-out: inhibition (10 μM)): 58.7% | inhibition at 10 µM (ILK; read-out: % inhibition (range)): 0% | inhibition at 10 µM (ILK; read-out: inhibition (10 μM)): -19% | inhibition at 10 µM (PKCz; read-out: % inhibition (range)): 0% | inhibition at 10 µM (PKCz; read-out: inhibition (10 μM)): 27% | % inhibition (range) (JNK1, JNK2, JNK3; 10 μM): 0.0% | inhibition (10 μM) (JNK1, JNK2, JNK3): −24.2% | inhibition at 10 µM (IKKb; read-out: % inhibition (range)): 0% | inhibition at 10 µM (IKKb; read-out: inhibition (10 μM)): -15% | % inhibition (range) (MAP3K2, MAP3K3; 10 μM): 35-50% | inhibition (10 μM) (MAP3K2, MAP3K3): 43.2% | inhibition at 10 µM (IRE1; read-out: % inhibition (range)): 0% | inhibition at 10 µM (IRE1; read-out: inhibition (10 μM)): -50.1% | inhibition at 10 µM (CaMKK2; read-out: % inhibition (range)): 50 to 75% | inhibition at 10 µM (CaMKK2; read-out: inhibition (10 μM)): 71.8% | inhibition at 10 µM (SNRK; read-out: % inhibition (range)): 35 to 50% | inhibition at 10 µM (SNRK; read-out: inhibition (10 μM)): 43.7% | inhibition at 10 µM (STLK5; read-out: % inhibition (range)): 0% | inhibition at 10 µM (STLK5; read-out: inhibition (10 μM)): -14.9% | inhibition at 10 µM (LATS1; read-out: % inhibition (range)): 0% | inhibition at 10 µM (LATS1; read-out: inhibition (10 μM)): 33.1%
